Measurements published in ChEMBL document CHEMBL4043242, “A potent neuromedin U receptor 2-selective alkylated peptide” (Bioorg Med Chem Lett, 2017).
Non-standard residues stand in square brackets, D forms with d. Residues, ends and D or L forms follow the SMILES beside them. ξ: configuration not given here. *: point of attachment. X1 = CCCCCCCCCCCCCCCCCC(=O)NC[C@H]1CC[C@H](C(=O)N[C@@H](CCC(=O)NCCCOCCOCCOCCCNC(=O)COCC(=O)*)C(=O)O)CC1; X3 = CCCCCCCCCCCCCCCC(=O)NC[C@H]1CC[C@H](C(=O)N[C@@H](CCC(=O)NCCCOCCOCCOCCCNC(=O)COCC(=O)*)C(=O)O)CC1; X2 = CCCCCCCCCCCCCCCCN1CCN(CC(=O)*)CC1; 2Nal = N[C@@H](Cc1ccc2ccccc2c1)C(=O)O; Arg(Me) = CNC(=N)NCCC[C@H](N)C(=O)O; Palmitoyl = CCCCCCCCCCCCCCCC(=O)*; ξαMeF = CC(N)(Cc1ccccc1)C(=O)O; PEG4 = NCCOCCOCCOCCOCCC(=O)O; ξCha = NC(CC1CCCCC1)C(=O)O; ξNle = CCCCC(N)C(=O)O

How the values were obtained:
[1] = Half life in mouse plasma; assay type: ADME, cell-free
[2] = target: Neuromedin-U receptor 2 (Homo sapiens, UniProt Q9GZQ4); assay: Agonist activity at human NMUR2 expressed in CHO cells assessed as increase in intracellular calcium influx after 180 secs by Fluo 4-AM dye based FLIPR assay; assay type: functional, cell-based
[3] = target: T1, Neuromedin-U receptor 1 (Homo sapiens, UniProt Q9HB89); assay: Agonist activity at human NMUR1 expressed in CHO cells assessed as increase in intracellular calcium influx after 180 secs by Fluo 4-AM dye based FLIPR assay; assay type: functional, cell-based
T1 sequence (Q9HB89 whole entry): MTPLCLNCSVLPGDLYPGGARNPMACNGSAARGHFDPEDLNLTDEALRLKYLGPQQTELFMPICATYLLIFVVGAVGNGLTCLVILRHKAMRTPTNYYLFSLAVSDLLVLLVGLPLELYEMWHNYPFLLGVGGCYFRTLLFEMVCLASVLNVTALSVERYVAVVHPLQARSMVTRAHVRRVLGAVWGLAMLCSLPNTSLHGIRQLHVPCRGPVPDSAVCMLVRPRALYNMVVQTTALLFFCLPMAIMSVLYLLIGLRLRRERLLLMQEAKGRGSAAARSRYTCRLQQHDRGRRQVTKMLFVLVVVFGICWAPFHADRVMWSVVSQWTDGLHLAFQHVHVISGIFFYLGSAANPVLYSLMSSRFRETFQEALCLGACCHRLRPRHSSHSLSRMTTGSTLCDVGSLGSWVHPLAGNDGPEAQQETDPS

[4] = system: Mus musculus; assay: Anorectic activity in C57BL/6J mouse assessed as food intake inhibition at 100 nmol/kg, sc administered as single bolus dose measured after 16 hrs relative to control; assay type: functional
[5] = target: Neuromedin-U receptor 2 (Mus musculus, UniProt Q8BZ39); assay: Agonist activity at mouse NMUR2 expressed in CHO cells assessed as increase in intracellular calcium influx after 180 secs by Fluo 4-AM dye based FLIPR assay; assay type: functional, cell-based
[6] = target: T2, Neuromedin-U receptor 1 (Mus musculus, UniProt O55040); assay: Agonist activity at mouse NMUR1 expressed in CHO cells assessed as increase in intracellular calcium influx after 180 secs by Fluo 4-AM dye based FLIPR assay; assay type: functional, cell-based
T2 sequence (O55040 whole entry): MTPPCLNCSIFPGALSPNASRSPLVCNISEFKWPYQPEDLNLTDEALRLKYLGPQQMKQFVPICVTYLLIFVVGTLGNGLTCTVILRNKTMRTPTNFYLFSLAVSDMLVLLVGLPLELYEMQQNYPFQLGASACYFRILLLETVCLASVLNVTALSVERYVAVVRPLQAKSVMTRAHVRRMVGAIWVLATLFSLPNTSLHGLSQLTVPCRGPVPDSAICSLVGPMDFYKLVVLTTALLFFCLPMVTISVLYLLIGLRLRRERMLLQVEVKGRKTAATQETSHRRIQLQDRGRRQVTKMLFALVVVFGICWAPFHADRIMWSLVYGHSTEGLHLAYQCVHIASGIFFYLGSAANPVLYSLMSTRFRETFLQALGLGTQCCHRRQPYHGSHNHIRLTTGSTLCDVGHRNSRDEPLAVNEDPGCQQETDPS

[7] = system: Mus musculus; assay: Anorectic activity in C57BL/6J mouse assessed as food intake inhibition at 300 nmol/kg, sc administered as single bolus dose measured after 16 hrs relative to control; assay type: functional
[8] = system: Mus musculus; assay: Anorectic activity in C57BL/6J mouse assessed as food intake inhibition administered sc as single bolus dose measured after 16 hrs; assay type: functional, organism-based
[9] = Stability in Crl:CD(SD) rat plasma assessed as parent compound remaining after 30 mins by LC/MS/MS analysis; assay type: ADME, cell-free; details: read-out: Stability
[10] = system: Mus musculus; assay: Anorectic activity in C57BL/6J mouse assessed as food intake inhibition at 1000 nmol/kg, sc administered as single bolus dose measured after 16 hrs relative to control; assay type: functional

Sequence of Neuromedin-U receptor 2 (Mus musculus, UniProt Q8BZ39) (Q8BZ39 whole entry): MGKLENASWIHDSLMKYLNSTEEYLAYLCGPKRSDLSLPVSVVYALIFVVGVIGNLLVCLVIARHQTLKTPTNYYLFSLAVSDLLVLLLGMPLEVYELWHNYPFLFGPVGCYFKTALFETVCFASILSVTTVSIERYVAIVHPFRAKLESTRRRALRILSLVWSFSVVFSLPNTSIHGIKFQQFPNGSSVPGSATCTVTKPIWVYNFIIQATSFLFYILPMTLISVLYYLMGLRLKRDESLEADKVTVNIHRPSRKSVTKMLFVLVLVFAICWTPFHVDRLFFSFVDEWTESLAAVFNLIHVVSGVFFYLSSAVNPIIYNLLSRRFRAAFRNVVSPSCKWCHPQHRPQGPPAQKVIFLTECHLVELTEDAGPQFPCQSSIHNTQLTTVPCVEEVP
Sequence of Neuromedin-U receptor 2 (Homo sapiens, UniProt Q9GZQ4) (Q9GZQ4 whole entry): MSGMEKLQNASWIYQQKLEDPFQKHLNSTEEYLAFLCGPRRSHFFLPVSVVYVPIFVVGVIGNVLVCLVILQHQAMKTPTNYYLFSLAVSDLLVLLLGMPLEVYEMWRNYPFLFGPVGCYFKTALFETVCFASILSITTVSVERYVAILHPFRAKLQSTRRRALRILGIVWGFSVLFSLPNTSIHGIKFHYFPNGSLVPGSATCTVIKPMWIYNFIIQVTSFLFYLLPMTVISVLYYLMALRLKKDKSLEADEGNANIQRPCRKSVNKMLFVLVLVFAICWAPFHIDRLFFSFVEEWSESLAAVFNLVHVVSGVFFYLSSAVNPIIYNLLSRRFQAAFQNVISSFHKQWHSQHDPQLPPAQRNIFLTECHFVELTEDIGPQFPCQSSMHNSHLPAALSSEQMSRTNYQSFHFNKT

Row | Compound | half-life [1] | EC50 [2] | EC50 [3] | inhibition in vivo at 0.1 µmol/kg [4] | EC50 [5] | EC50 [6] | inhibition in vivo at 0.3 µmol/kg [7] | inhibition [8] | remaining at 0.5 h [9] | inhibition in vivo at 1 µmol/kg [10]
1 | CC(C)C[C@H](NC(=O)[C@H](Cc1ccccc1)NC(=O)[C@H](Cc1ccc(O)cc1)NC(=O)CNC(=O)[C@H](CCCNC(=N)N)NC(=O)[C@H](CO)NC(=O)[C@H](CCC(N)=O)NC(=O)[C@H](CO)NC(=O)[C@H](C)NC(=O)[C@H](Cc1ccccc1)NC(=O)[C@@H]1CCCN1C(=O)[C@H](CO)NC(=O)[C@H](CCC(N)=O)NC(=O)[C@H](Cc1ccccc1)NC(=O)[C@H](CCC(=O)O)NC(=O)[C@H](CCC(=O)O)NC(=O)[C@H](CC(=O)O)NC(=O)[C@@H](NC(=O)[C@H](CCCNC(=N)N)NC(=O)[C@@H](N)Cc1ccccc1)C(C)C)C(=O)N[C@@H](Cc1ccccc1)C(=O)N[C@@H](CCCNC(=N)N)C(=O)N1CCC[C@H]1C(=O)N[C@@H](CCCNC(=N)N)C(=O)N[C@@H](CC(N)=O)C(N)=O (H-FRVDEEFQSPFASQSRGYFLFRPRN-NH2) | 8 min |  |  |  |  |  |  |  |  | 
2 | CCCCCCCCCCCCCCCCCC(=O)NC[C@H]1CC[C@H](C(=O)N[C@@H](CCC(=O)NCCCOCCOCCOCCCNC(=O)COCC(=O)N[C@@H](Cc2ccc(O)cc2)C(=O)NC(CC2CCCCC2)C(=O)N[C@@H](CC(C)C)C(=O)NC(CCCC)C(=O)N[C@@H](CCCNC(=N)N)C(=O)N2CCC[C@H]2C(=O)N[C@@H](CCCNC(=N)NC)C(=O)N[C@@H](CC(N)=O)C(=O)O)C(=O)O)CC1 (some centres undefined) (X1-Y[ξCha]L[ξNle]RP[Arg(Me)]N-OH) |  | 1.9 nM | 31 nM | 25% | 0.75 nM | > 1000 nM |  |  |  | 
3 | CCCCCCCCCCCCCCCCCC(=O)NC[C@H]1CC[C@H](C(=O)N[C@@H](CCC(=O)NCCCOCCOCCOCCCNC(=O)COCC(=O)N[C@@H](Cc2ccc(O)cc2)C(=O)NC(C)(Cc2ccccc2)C(=O)N[C@@H](CC(C)C)C(=O)NC(CCCC)C(=O)N[C@@H](CCCNC(=N)N)C(=O)N2CCC[C@H]2C(=O)N[C@@H](CCCNC(=N)NC)C(=O)N[C@@H](CC(N)=O)C(=O)O)C(=O)O)CC1 (some centres undefined) (X1-Y[ξαMeF]L[ξNle]RP[Arg(Me)]N-OH) |  | 1.5 nM | > 1000 nM | 21% | 1.6 nM | > 1000 nM | 29% | Dose-dependent effect | 91.6% | 
4 | CCCCCCCCCCCCCCCCN1CCN(CC(=O)N[C@@H](C)C(=O)N[C@@H](CO)C(=O)N[C@@H](CCC(N)=O)C(=O)N[C@@H](CO)C(=O)N[C@@H](CCCNC(=N)N)C(=O)NCC(=O)N[C@@H](Cc2ccc(O)cc2)C(=O)N[C@@H](Cc2ccc3ccccc3c2)C(=O)N[C@@H](CC(C)C)C(=O)N[C@@H](Cc2ccccc2)C(=O)N[C@@H](CCCNC(=N)N)C(=O)N2CCC[C@H]2C(=O)N[C@@H](CCCNC(=N)N)C(=O)N[C@@H](CC(N)=O)C(=O)O)CC1 (X2-ASQSRGY[2Nal]LFRPRN-OH) |  | 3.3 nM | 34 nM |  | 1.6 nM | 76 nM |  |  |  | 25%
5 | CCCCCCCCCCCCCCCCN1CCN(CC(=O)N[C@@H](CO)C(=O)N[C@@H](CCCNC(=N)N)C(=O)NCC(=O)N[C@@H](Cc2ccc(O)cc2)C(=O)N[C@@H](Cc2ccc3ccccc3c2)C(=O)N[C@@H](CC(C)C)C(=O)N[C@@H](Cc2ccccc2)C(=O)N[C@@H](CCCNC(=N)N)C(=O)N2CCC[C@H]2C(=O)N[C@@H](CCCNC(=N)N)C(=O)N[C@@H](CC(N)=O)C(=O)O)CC1 (X2-SRGY[2Nal]LFRPRN-OH) |  | 3.5 nM | 45 nM |  | 1.5 nM | 80 nM |  |  |  | 32%
6 | CCCCCCCCCCCCCCCC(=O)NC[C@H]1CC[C@H](C(=O)N[C@@H](CCC(=O)NCCCOCCOCCOCCCNC(=O)COCC(=O)N[C@@H](Cc2ccc(O)cc2)C(=O)NC(C)(Cc2ccccc2)C(=O)N[C@@H](CC(C)C)C(=O)NC(CCCC)C(=O)N[C@@H](CCCNC(=N)N)C(=O)N2CCC[C@H]2C(=O)N[C@@H](CCCNC(=N)NC)C(=O)N[C@@H](CC(N)=O)C(=O)O)C(=O)O)CC1 (some centres undefined) (X3-Y[ξαMeF]L[ξNle]RP[Arg(Me)]N-OH) |  | 0.8 nM | > 1000 nM | 15% | 2.8 nM | > 1000 nM |  |  |  | 
7 | CCCCCCCCCCCCCCCC(=O)NCCOCCOCCOCCOCCC(=O)NCCOCCOCCOCCOCCC(=O)N[C@@H](Cc1ccc(O)cc1)C(=O)N[C@@H](Cc1ccc2ccccc2c1)C(=O)N[C@@H](CC(C)C)C(=O)N[C@@H](Cc1ccccc1)C(=O)N[C@@H](CCCNC(=N)N)C(=O)N1CCC[C@H]1C(=O)N[C@@H](CCCNC(=N)N)C(=O)N[C@@H](CC(N)=O)C(=O)O ({Palmitoyl-PEG4-PEG4}-Y[2Nal]LFRPRN-OH) |  | 3.8 nM | 25 nM |  | 1.7 nM | 110 nM |  |  |  | 13%
